Values of other authors, collected in article PMC8650797 (The ocular surface, 2020).

Test system: herpes simplex virus DNA polymerase
Conditions: native peptide; ref [29] Digard et al.

Sequence: EETRRMLHRAFDTLA
- activity in blocking DNA synthesis in vitro: very poor activity
